Legend:
[1] = plasticizer added at 20 % to Eudragit RS® film; measured with chlorhydrate de phénylpropanolamine; cited from earlier work
[2] = in vitro dissolution / release of trimetazidine dihydrochloride from reservoir forms; format: physicochemical; settings: release of trimetazidine dihydrochloride through a film containing this plasticizer (figure 1)
[3] = solubility in water of trimetazidine dihydrochloride; format: physicochemical; settings: read-out: solubilité du dichlorhydrate dans l'eau
Description: Le poids moléculaire de la trimétazidine sous forme de base est de 266,33 et la solubilité du dichlorhydrate dans l'eau supérieure à 1000 mg/ml. De ce fait, il était très difficile d'obtenir des comprimés matriciels contrôlant la libération du principe actif sur plus de 16 heures. Ce problème a été résolu par l'utilisation du système réservoir décrit dans la présente invention.

[4] = immediate-release oral forms; background statement; cited from earlier work

## CCOC(=O)c1ccccc1C(=O)OCC [Diéthylphtalate]
[1]
  Perméabilité: 14.8 mg.cm⁻².h⁻¹

## CC(=O)OCC(COC(C)=O)OC(C)=O [Triacétine]
[2]
  temps de latence: très long qui peut atteindre quatre heures
[1]
  Perméabilité: 6.2 mg.cm⁻².h⁻¹

## COc1ccc(CN2CCNCC2)c(OC)c1OC [dichlorhydrate de trimétazidine, 1-(2,3,4-triméthoxybenzyl)pipérazine]
[3]
  solubility: > 1000 mg/mL
[4]
  demi-vie plasmatique: < 6 heures

From EP0673649A1, “Pharmaceutical compositions for the prolonged release of trimetazidine after oral administration” (ADIR ET COMPAGNIE, priority 1994, dated 1995)
